Columns and labels:
[1] = tested on: endothelium-intact aortic rings (NPR-C mediated); experiment: Aortic ring relaxation, endothelium-intact rings pre-contracted with 40 mM KCl (Example 3); set-up: species or system rat; conditions: for competitive inhibition of the binding of TNPc: endothelium-intact aortic rings, TNPa or TNPb followed by TNPc 0.1 μM; for percentage relaxation of the precontraction by KCl: endothelium-intact rat aortas pre-contracted with 40 mM KCl, peptide 0.1 μM
Protocol: (§1) Male Sprague Dawley rats were killed and the descending thoracic aorta rapidly removed and flushed with physiological solution. After being cleared of adhering fat and connective tissue, 5 mm rings were mounted under 10 g resting tension, between two stainless steel hooks, in organ baths (37° C.) containing carbogenated (95% O2 and 5% CO2) physiological salt solution of the following composition (mM): NaCl, 118.4; NaHCO3, 25; glucose, 11; KCl, 4.7; MgSO4, 1.2; KH2PO4, 1.2 and CaCl2, 2.5. The lower hook was attached to a tissue holder and the upper hook to a force displacement transducer (Grass FTO3). Where indicated endothelial cells were removed by gentle rubbing of the intimal surface with a wire. To confirm the presence or absence of endothelial cells, tissues were precontracted with a sub-maximal concentration of phenylephrine (0.3 μM) and the response to acetylcholine (ACh, 10 μM) observed. Ach-induced relaxation greater than 80% of maximum indicated the presence of endothelium; whereas Ach-induced relaxation less than 10% indicated the absence of endothelium. Ring preparations under resting tension were conditioned by two contraction/relaxation cycles with 40 mM KCl, contracted by a third application of 40 mM KCl and then relaxed with different doses of the venom peptides. Responses were expressed as a percentage relaxation of the precontraction by KCl.

[2] = tested on: endothelium-denuded aortic rings (GC-A mediated); experiment: Aortic ring relaxation, endothelium-denuded rings pre-contracted with 40 mM KCl (Example 3); set-up: species or system rat; conditions: for competitive inhibition of the binding of TNPc: endothelium-denuded aortic rings, TNPa or TNPb followed by TNPc 0.1 μM; for percentage relaxation of the precontraction by KCl: endothelium-denuded rat aortas pre-contracted with 40 mM KCl, peptide 0.1 μM
Protocol: as §1

[3] = target: T1, rat GC-A (Rattus norvegicus, UniProt P18910); experiment: Cell cyclic GMP elevations in HEK-293 cells stably expressing rat GC-A (Example 4); type: cell-based; conditions: 0.1 μM; 293 cells over-expressing GC-A
T1 construct: expressed in transfected cells
T1 sequence (P18910 29-1057): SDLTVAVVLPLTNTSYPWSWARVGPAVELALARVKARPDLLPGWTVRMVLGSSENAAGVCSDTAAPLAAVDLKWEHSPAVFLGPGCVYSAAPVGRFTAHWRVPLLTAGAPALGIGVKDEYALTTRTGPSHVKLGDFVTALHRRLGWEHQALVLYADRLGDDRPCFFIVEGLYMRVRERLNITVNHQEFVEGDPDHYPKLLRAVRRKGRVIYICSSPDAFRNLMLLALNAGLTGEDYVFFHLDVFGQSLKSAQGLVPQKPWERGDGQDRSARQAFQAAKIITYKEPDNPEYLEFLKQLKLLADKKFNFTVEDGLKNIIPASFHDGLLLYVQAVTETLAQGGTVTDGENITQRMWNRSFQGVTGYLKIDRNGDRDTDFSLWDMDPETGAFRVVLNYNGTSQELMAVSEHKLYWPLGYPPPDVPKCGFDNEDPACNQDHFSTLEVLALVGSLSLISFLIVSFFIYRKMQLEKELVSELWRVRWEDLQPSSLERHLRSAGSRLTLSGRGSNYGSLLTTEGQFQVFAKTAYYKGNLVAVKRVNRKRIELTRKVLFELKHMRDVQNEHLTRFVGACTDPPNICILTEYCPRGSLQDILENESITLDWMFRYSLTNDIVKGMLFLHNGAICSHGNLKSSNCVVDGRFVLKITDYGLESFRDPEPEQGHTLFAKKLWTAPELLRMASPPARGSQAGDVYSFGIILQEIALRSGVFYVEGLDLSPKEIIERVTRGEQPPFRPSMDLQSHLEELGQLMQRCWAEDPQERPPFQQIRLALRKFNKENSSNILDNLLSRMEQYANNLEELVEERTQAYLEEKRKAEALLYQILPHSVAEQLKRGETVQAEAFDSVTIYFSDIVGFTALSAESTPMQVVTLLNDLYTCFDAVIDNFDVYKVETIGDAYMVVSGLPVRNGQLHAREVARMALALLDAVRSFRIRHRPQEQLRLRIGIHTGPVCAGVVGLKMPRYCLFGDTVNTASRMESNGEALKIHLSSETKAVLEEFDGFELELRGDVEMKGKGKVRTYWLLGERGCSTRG
Source text: The human embryonic kidney 293 (HEK-293) cell line was used for the stable expression of rat GC-A (GC-A/293). Cells expressing rat GC-A (GC-A/293) in the HEK-293 cell line were as previously described (Potter L. R., and Garbers D. L., (1992), J Biol Chem. 26, 14531-4) and determination of cGMP elevations was undertaken as previously described (Chrisman et al. T. D., Schulz, S., Potter, L. R. and Garbers, D. L., (1993,) J. Biol. Chem. (1993) 268 (5), 3698-3703). Responses were expressed as a percentage of the effect produced by ANP.

[4] = tested on: conscious rabbits; experiment: Blood pressure and heart rate in conscious rabbits, intravenous infusion dose-response (Example 8); conditions: for Recovery (MAP) / Recovery Delta SED (MAP): after 1 hour recovery period; for Recovery (MAP) / Recovery Delta SED (MAP) / MAP at final dose / Treatment Effect, change of mean blood pressure during the infusion: Table 10A; for MAP at final dose / Treatment Effect, change of mean blood pressure during the infusion: highest dose; for Treatment Effect, change of mean blood pressure during the infusion: groups 1, 2A and 3; for Diastolic BP, mean difference from control / HR, mean difference from control / Mean BP, mean difference from control / Systolic BP, mean difference from control: 45 min
[5] = average of the 3 doses 1.0, 2.0, 4.0 μg/kg/min

| Sequence | competitive inhibition of the binding of TNPc [1] | percentage relaxation of the precontraction by KCl [1] | competitive inhibition of the binding of TNPc [2] | percentage relaxation of the precontraction by KCl [2] | cGMP elevations, percentage of the effect produced by ANP [3] | Recovery (MAP) [4] [mm Hg] | Recovery Delta SED (MAP) [4] [mm Hg] | Diastolic BP, Average Response SED [4, 5] [mmHg] | Mean BP (MAP), Average Response SED [4, 5] [mmHg] | Systolic BP, Average Response SED [4, 5] [mmHg] | MAP at final dose [4] [mm Hg] | Treatment Effect, change of mean blood pressure during the infusion [4] [mm Hg] | Diastolic BP, mean difference from control ([4]; i.v. infusion 1.0 μg/kg/min) [mmHg] | HR, mean difference from control ([4]; i.v. infusion 1.0 μg/kg/min) [bpm] | Mean BP, mean difference from control ([4]; i.v. infusion 1.0 μg/kg/min) [mmHg] | Systolic BP, mean difference from control ([4]; i.v. infusion 1.0 μg/kg/min) [mmHg] | Diastolic BP, mean difference from control ([4]; i.v. infusion 2.0 μg/kg/min) [mmHg] | HR, mean difference from control ([4]; i.v. infusion 2.0 μg/kg/min) [bpm] | Mean BP, mean difference from control ([4]; i.v. infusion 2.0 μg/kg/min) [mmHg] | Systolic BP, mean difference from control ([4]; i.v. infusion 2.0 μg/kg/min) [mmHg] | further results |
| --- | --- | --- | --- | --- | --- | --- | --- | --- | --- | --- | --- | --- | --- | --- | --- | --- | --- | --- | --- | --- | --- |
| SDPKIGDGCFGLPLDHIGSVSGLGCNRPVQNRPKK (A portion of a natriuretic peptide) [TNPb] | lack the ability to competitively inhibit the binding of TNPc | approximately 20% | lack the ability to competitively inhibit the binding of TNPc | no relaxation | lesser effects on cGMP elevations | 68.2 | 3.5 ± 2.3 | −7.8 ± 0.9 | −9.6 ± 1.1 | −8.9 ± 1.4 | 64.7 | −11.0 | −7.0 | −3.9 | −8.0 | −7.9 | −7.9 | −5.1 | −9.8 | −8.8 | HR, Average Response SED [4, 5]: −1.4 ± 3.5 bpm; Diastolic BP, mean difference from control ([4]; i.v. infusion 4.0 μg/kg/min): −8.6 mmHg; HR, mean difference from control ([4]; i.v. infusion 4.0 μg/kg/min): 4.7 bpm; Mean BP, mean difference from control ([4]; i.v. infusion 4.0 μg/kg/min): −11.0 mmHg; Systolic BP, mean difference from control ([4]; i.v. infusion 4.0 μg/kg/min): −10.0 mmHg |
| SDSKIGDGCFGLPLDHIGSVSGLGCNRPVQNRPKK (A portion of a natriuretic peptide) [TNPa] | lack the ability to competitively inhibit the binding of TNPc | approximately 20% | lack the ability to competitively inhibit the binding of TNPc | no relaxation | lesser effects on cGMP elevations | 65.3 | 3.0 ± 2.9 | −7.9 ± 0.9 | −8.7 ± 1.1 | −5.7 ± 1.3 | 62.3 | −11.6 | −6.0 | −16.1 | −6.4 | −2.8 | −7.7 | −15.9 | −8.0 | −4.9 | Diastolic BP, mean difference from control ([4]; i.v. infusion 4.0 μg/kg/min): −9.9 mmHg; HR, mean difference from control ([4]; i.v. infusion 4.0 μg/kg/min): −9.8 bpm; Mean BP, mean difference from control ([4]; i.v. infusion 4.0 μg/kg/min): −11.6 mmHg; Systolic BP, mean difference from control ([4]; i.v. infusion 4.0 μg/kg/min): −9.4 mmHg |

Reference: patent publication US8058242B2, “Chimeric proteins with natriuretic activity” (The University of Queensland, priority 2004, dated 2011)
